Measured values published in US4465676A, “16α Halogen substituted 3,17β-dihydroxy steroidal estrogens” (priority 1980, dated 1984).
Where two headings read alike, the source gives them in different places.

Legend:
[1] = External localization of tracer in an ovariectomized squirrel monkey; assay type: in vivo, squirrel monkey (Saimari Sciureus)
Description: The tracer ^131 I-E2 was synthesized as described in Example 6 with the exception that Na ^131 I was used for the exchange. The subject, a squirrel monkey (Saimari Sciureus), weighing 1.5 kilograms, was ovariectomized 2 weeks before the start of the experiment and an estradiol containing Silastic implant was placed subcutaneously in […] back. The implant was removed 24 hours before the intravenous injection of 200 μCi of the tracer dissolved in saline. […] Within 1 to 2 hours radioactivity could be detected in the suprapubic region, but when the bladder was aspirated and washed, 3.8 μCi of radioactivity was found in the urine.

[2] = target: T1, estrogen receptor (calf uterine cytosol) (Bos taurus, UniProt P49884); test: Competition for the estrogen receptor in calf uterine cytosol; assay type: binding; conditions: for activity at 0.0005 µM: competitor 0.5 nM
T1 construct: Fresh calf uteri obtained from a slaughterhouse; from tissue; host or cells: calf uterus, 150,000 x g cytosol from lyophilized powder
T1 sequence (P49884 1-596): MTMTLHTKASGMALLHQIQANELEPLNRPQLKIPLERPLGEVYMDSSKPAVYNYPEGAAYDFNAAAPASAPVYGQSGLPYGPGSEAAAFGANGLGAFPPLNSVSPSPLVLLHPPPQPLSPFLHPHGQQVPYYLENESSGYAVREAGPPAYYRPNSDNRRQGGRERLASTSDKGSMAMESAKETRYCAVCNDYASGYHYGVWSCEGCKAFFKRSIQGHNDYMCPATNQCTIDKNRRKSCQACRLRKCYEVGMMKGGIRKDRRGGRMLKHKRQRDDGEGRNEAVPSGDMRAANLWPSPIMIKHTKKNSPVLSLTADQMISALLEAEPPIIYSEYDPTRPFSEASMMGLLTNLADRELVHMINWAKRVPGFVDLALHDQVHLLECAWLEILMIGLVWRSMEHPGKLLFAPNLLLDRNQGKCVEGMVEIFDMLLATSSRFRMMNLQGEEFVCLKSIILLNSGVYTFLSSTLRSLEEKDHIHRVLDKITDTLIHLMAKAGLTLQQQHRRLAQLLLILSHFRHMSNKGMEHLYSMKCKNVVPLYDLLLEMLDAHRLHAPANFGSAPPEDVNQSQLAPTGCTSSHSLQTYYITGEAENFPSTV
Description: Several compounds, at the two indicated concentrations, were allowed to compete with both labeled steroids for sites in calf uterine cytosol. Incubations were overnight at 4° C., and bound and free steroids were separated with dextran-coated charcoal.

estrogen receptors = conditions: ability to displace [3H]estradiol from receptor sites; cited from earlier work
[3] = test system: antisera against bovine serum albumin complexes with E2-17-hemisuccinate, E2-6-carboxymethyloxime and E2-3-carboxymethyl ether; test: Radioimmunoassay with antisteroid antisera; assay type: binding, rabbits
Description: Antisteroid antisera were produced in rabbits immunized with steroid-bovineserum albumin conjugates.
Varying amounts of E2 dissolved in methanol were added to test tubes and evaporated to dryness. The residues were dissolved in 100 μl of antiserum that had been diluted in 0.1M phosphate, pH 7.0/0.015M sodium azide/0.15M NaCl/0.1% gelatin (PBS buffer). […] Upon completion of the incubation, 100 μl of 0.5% gelatin in PBS buffer was added, followed by 1 ml of PBS buffer containing 2.5 mg of dextran-coated charcoal. The mixture was agitated in a vortex mixer and, after 10 minutes at 4° C., it was centrifuged at 5000×g for 10 minutes at 4° C. Aliquots (0.9 ml) were assayed for radioactivity.
The data also indicate that very sensitive radioimmunoassays could be developed with all three antisera.

[4] = test system: estrogen-dependent human breast tumor cell line (MCF-7); test: Induction of growth of MCF-7 cells in vitro; assay type: cell-based
From the text: This difference in potency, can be explained either by differences in the peripheral metabolism of the two compounds or by differences in events that occur after binding to the cytosolic receptor has taken place. At this time we believe the former explanation to be correct because the two estrogens are equipotent in vitro in inducing growth of an estrogen-dependent human breast tumor cell line (MCF-7).

[5] = target: T2, calf uterine estrogen receptor (Bos taurus, UniProt P49884); test: Saturation and Scatchard analysis of the estrogen receptor from calf uterus; assay type: binding; conditions: Scatchard analysis, calf uterine cytosol
T2 construct: Fresh calf uteri obtained from a slaughterhouse; from tissue; host or cells: calf uterus, 150,000 x g cytosol from lyophilized powder
T2 sequence (P49884 1-596): T1 sequence (P49884 1-596)
Description: Fresh calf uteri obtained from a slaughterhouse were brought to the laboratory on ice, immediately trimmed of fat, and cut into small pieces; the pieces were frozen in liquid nitrogen and pulverized. The pulverized frozen tissue was lyophilized, and the desiccated powder was stored under vacuum in sealed vials at -80° C. The uterine powders were usually used within 1 month of pulverization. When needed, the powders were suspended in 0.1M Tris-HCl, pH 7.4/2.5 mM EDTA/5 mM dithiotreithol (TED buffer) at 2.5 mg/ml and homogenized at 0° C. in a Polytron homogenizer with two or three pulses at 15 seconds each. The homogenate was then centrifuged at 150,000×g for 60 minutes and the resulting supernatant (cytosol), containing approximately 1 mg of protein per ml, was used for binding studies on the estrogen receptor.
After the solvent was removed under a stream of N2, 250 μl of cytosol was added and the samples were incubated at 0°-2° C. overnight. The following morning, 250 μl of a 0.5% suspension of dextran-coated charcoal in TED buffer was added to the tubes which then were mixed and centrifuged at 5000×g for 10 minutes. The supernatant was assayed to determine bound radioactivity.
A saturation analysis of the estrogen receptor from calf uterus was conducted. […] Nonspecific binding, specific binding and total binding were determined in parallel incubations containing 0.7 μM DES.
A Scatchard analysis of the estrogen receptor from calf uterus was also conducted.

[6] = test system: 21-day-old female rats (uteri); test: Estrogen bioassay, uterine weight in 21-day-old female rats; assay type: in vivo; conditions: daily s.c. injections for 3 days, uterine weight on fourth day
Description: Estrogenic potency was assayed in 21-day-old female rats. […] On the fourth day, the uteri were removed, trimmed, blotted, and weighed.

[7] = read-out: B/B0 × 10^2, tracer ^3 H-E2 (0.74 nM)
[8] = read-out: B/B0 × 10^2, tracer ^3 H-E2 (0.74 nM), competitor 5.0 nM
[9] = read-out: B/B0 × 10^2, tracer ^125 I-E2 (0.22 nM)
[10] = read-out: B/B0 × 10^2, tracer ^125 I-E2 (0.22 nM), competitor 5 nM

Q: For `C[C@]12CC[C@@H]3c4ccc(O)cc4CC[C@H]3[C@@H]1C[C@@H]([131I])[C@@H]2O` [^131 I-E2], which “imaging of the uterus” value ([1]; Anger Camera) is on record?
A: uterus was then imaged

Q: And the “radioactivity found in the urine” value ([1]; bladder aspirated and washed, i.v. 200 μCi)?
A: 3.8 μCi

Q: What about the “time until radioactivity detected in the suprapubic region” value ([1]; i.v. 200 μCi) of the same molecule?
A: 1 to 2 h

Q: And the “uptake of the tracer in the liver” value ([1]; i.v. 200 μCi, pin-hole collimator scan)?
A: could be seen immediately

Q: For `C[C@]12C[C@H](O)[C@H]3[C@@H](CCC4=CC(=O)CC[C@@]43C)[C@@H]1CC[C@@H]2C(=O)CO` [Corticosterone], which activity at 0.0005 µM ([2]; tracer ^3 H-E2 (0.74 nM), read-out: B/B0 × 10^2) is on record?
A: 103%

Q: And the activity at 0.005 µM ([2]; tracer ^3 H-E2 (0.74 nM), competitor 5.0 nM, read-out: B/B0 × 10^2)?
A: 97%

Q: What about the activity at 0.0005 µM ([2]; tracer ^125 I-E2 (0.22 nM), read-out: B/B0 × 10^2) of the same molecule?
A: 100%

Q: What about the activity at 0.005 µM ([2]; tracer ^125 I-E2 (0.22 nM), competitor 5 nM, read-out: B/B0 × 10^2) of the same molecule?
A: 93%

Q: For `C[C@]12CC[C@@H]3c4ccc(O)cc4C(I)=C[C@H]3[C@@H]1CC[C@@H]2O` [6-iodoestra-1,3,5(10), 6-tetraene-3,17β-diol], which relative binding affinity (estrogen receptors) is on record?
A: 0.49

Q: Which activity at 0.0005 µM [2, 7] does the source give for `C[C@]12CC[C@H](O)CC1=CC[C@@H]1[C@@H]2CC[C@]2(C)C(=O)CC[C@@H]12` [Dehydroisoandrosterone] here?
A: 98%

Q: What about the activity at 0.005 µM [2, 8] of the same molecule?
A: 108%

Q: And the activity at 0.0005 µM [2, 9]?
A: 104%

Q: And the activity at 0.005 µM [2, 10]?
A: 107%

Q: With `C[C@]12CC[C@@H]3c4ccc(O)cc4CC[C@H]3[C@@H]1CC[C@@H]2O` [E2, estra-1,3,5(10)-triene-3,17β-diol, reference compound] as the molecule, how does the “tracer displaced from the antibody” value ([3]; anti-E2-6-carboxymethyloxime-albumin, 1 pg of E2) read?
A: ~50%

Q: And the “inducing growth of MCF-7” value [4]?
A: equipotent

Q: Which “binding of tracer to antisera” value ([3]; three antisera, various dilutions) does the source give for `[3H]C1c2cc(O)ccc2[C@H]2CC[C@]3(C)[C@@H](O)CC[C@H]3[C@@H]2C1[3H]` (stereo partly drawn) [^3 H-E2] here?
A: bound to all three antisera

Q: Which binding capacity [5] does the source give for `C[C@]12CC[C@@H]3c4ccc(O)cc4CC[C@H]3[C@@H]1C[C@@H](I)[C@@H]2O` [I-E2, 16α-iodoestra-1,3,5,(10)-triene-3,17β-diol] here?
A: 411 fmol/mg of protein

Q: And the Kd ([5]; read-out: Ka (association constant) (converted))?
A: 0.141 nM

Q: And the “inducing growth of MCF-7” value [4]?
A: equipotent

Q: And the “estrogenic potency in vivo” value [6]?
A: estrogenic in vivo, albeit not as potent as E2 itself

Q: What about the activity at 0.0005 µM [2, 7] of the same molecule?
A: 69%

Q: And the activity at 0.005 µM [2, 8]?
A: 12%

Q: What about the activity at 0.0005 µM [2, 9] of the same molecule?
A: 35%

Q: And the activity at 0.005 µM [2, 10]?
A: 2%

Q: What about the “competing for the estrogen receptor (in words)” value ([2]; regardless of which radioactive ligand was used) of the same molecule?
A: about equipotent

Q: Which activity at 0.0005 µM [2, 7] does the source give for `CC(=O)[C@H]1CC[C@H]2[C@@H]3CCC4=CC(=O)CC[C@]4(C)[C@H]3CC[C@]12C` [Progesterone] here?
A: 97%

Q: And the activity at 0.005 µM [2, 8]?
A: 102%

Q: What about the activity at 0.0005 µM [2, 9] of the same molecule?
A: 98%

Q: And the activity at 0.005 µM [2, 10]?
A: 102%

Q: Which relative binding affinity (estrogen receptors) does the source give for `C[C@]12CC[C@@H]3c4ccc(O)cc4CC[C@H]3[C@@H]1C[C@H](I)[C@@H]2O` [16β-iodoestra-1,3,5(10)-triene-3-17β-diol] here?
A: 0.57
